In brackets after ≈: the same amount, converted by molar mass.
What was measured:
Assay type in all cases: functional
[1] = Antitumor activity against mouse MHEC5T cells xenografted in SCID mouse assessed as reduction in tumor blood flow at 100 mg/kg after 1 hrs; set-up: scale not given: the % may be the effect or the level left
[2] = Antitumor activity against mouse MHEC5T cells xenografted in SCID mouse assessed as reduction in tumor blood flow at 100 mg/kg after 24 hrs; set-up: scale not given: the % may be the effect or the level left
[3] = Antitumor activity against mouse MHEC5T cells xenografted in SCID mouse assessed as reduction in tumor blood flow at 100 mg/kg after 72 hrs; set-up: scale not given: the % may be the effect or the level left
[4] = test system: P388; assay: Growth inhibition of mouse P388 cells; details: read-out: ED50 (the source's name)

SMILES	Activity [1]	Activity [2]	Activity [3]	EC50 [4]
COc1cc(/C=C\c2ccc(OC)c(OP(=O)([O-])[O-])c2OP(=O)([O-])[O-])cc(OC)c1OC.[Na+].[Na+].[Na+].[Na+]	50%	90%	27%	
COc1cc2nc3c(/C=C\c4cc(OC)c(OC)c(OC)c4)ccc(OC)c3nc2cc1OC				0.2 mg/L (≈ 0.432 µM)
COc1cc(/C=C\c2ccc(OC)c3nc4ccccc4nc23)cc(OC)c1OC				0.2 mg/L (≈ 0.497 µM)

Source: ChEMBL document CHEMBL1156654, “Antineoplastic agents. 552. Oxidation of combretastatin A-1: trapping the o-quinone intermediate considered the metabolic product of the corresponding phosphate prodrug” (2008)
